Experimental data as given in patent US20250221957A1, “PS[…] AND THEIR USE FOR TREATING […] AND NE[…] DISORDERS” (Transcend Therapeutics, Inc., priority 2021, published 2025).
Like-named read-outs stand apart in the source and are kept apart here. Marks after values point to notes of the source that are not given here.

Key:
[1] = tested on: patients with a diagnosis of PTSD or MDD; healthy subjects; assay: Methylone case series (Example 4, Cohorts 1 and 2): CGI-S/CGI-I and safety events; type: in vivo, human
Method: CGI-S scale was also evaluated in a subset of patients from Cohort 2 post-treatment. Cohort 2 was evaluated for any observed or reported safety events following a single dosing session.
Clinical Global Impressions (CGI) scale includes 2 components: CGI-S(“severity”) and CGI-I (“improvement”).
• 1=Normal—not at all ill, symptoms of disorder not present past seven days • 2=Borderline mentally ill-subtle or suspected pathology • 3=Mildly ill-clearly established symptoms with minimal, if any, distress or difficulty in social and occupational function • 4=Moderately ill-overt symptoms causing noticeable, but modest, functional impairment or distress; symptom level may warrant medication • 5=Markedly ill-intrusive symptoms that distinctly impair social/occupational function or cause intrusive levels of distress • 6=Severely ill-disruptive pathology, behavior and function are frequently influenced by symptoms, may require assistance from others • 7=Among the most extremely ill patients-pathology drastically interferes in many life functions; may be hospitalized
Only sessions that included methylone dosing were counted as dosing sessions.
Single sessions occurred for 8 of the 28 cases with no booster in two of these cases. In the remainder of the cases, multiple sessions occurred, and booster doses were used in all or some of the remaining patients ([…]) with multiple booster doses used in some or all of the sessions in 15 patients.

[2] = tested on: mice; assay: Fear extinction paradigm, mouse model of PTSD; type: in vivo
Text: (FIG. 9A) Schematic of experimental design. A single CS-US (tone-shock) pairing on day 1 was followed by 6 CS presentations in a novel context (context B). […] On day 3, the time spent freezing to the CS was quantified. […] (FIG. 9C) No locomotor changes were observed on day 3 (t(26)=1.073, p>0.05). Data are mean +/− SEM.
FIGS. 10A-10B: MBDB improves fear extinction in a mouse model of PTSD. A single CS-US (tone-shock) pairing on day 1 was followed by 6 conditioned stimulus (CS) presentations in a novel context (context B). MBDB or saline vehicle was injected 30 min prior to extinction training on day 2. The time spent freezing to the CS was quantified on […]. […] Data are mean +/− SEM. N=10 for MBDB group (5 mg/kg, IP) and N=16 for saline control group. **p<0.01 vs. vehicle control group.
Effective PTSD treatments facilitate the disassociation between a traumatic memory and the patient's fear response, making cues for the traumatic memory evoke less of a fear response. This is modeled in the mouse fear extinction paradigm (see FIG. 9A) which takes place over 3 days. On day 1 (fear conditioning), mice are trained to acquire a “traumatic memory,” namely associating the conditioned stimulus (CS, tone) to the unconditioned stimulus (US, foot shock). On day 2 (extinction training), they are trained to forget the traumatic memory association by presenting the CS 6 times (with no US) in a novel environment. On day 3 (extinction recall), the mice are “asked” if that tone (CS) still elicits a fearful response, as measured by the time spent freezing when the tone is presented. Less time freezing means better extinction recall. Drugs that improve extinction recall reduce freezing time on day 3, and, therefore, show potential as a PTSD treatment.

[3] = tested on: rats; assay: Open field test (OFT); type: in vivo, rat; details: single methylone dose 5 or 15 mg/kg IP, 30 minutes before testing
Method: Data are mean +/− SEM. N=6 per group. * p<0.05; **p<0.01 vs. vehicle control group.
Method: Consecutive beam breaks and/or video-tracking of time spent in the center versus periphery of the open field are measured. Also measured are parameters such as distance traveled and ambulatory activity (horizontal and vertical) for the duration of the test session.
The open field test (OFT) capitalizes on a rodent's innate fear of open spaces to assess anxiety-like behavior. More time spent in the center of an open field reflects an anxiolytic (anti-anxiety) effect.

[4] = tested on: 168 GPCRs; assay: DiscoverX PathHunter β-arrestin GPCR screen, agonist and antagonist mode; type: cell-based; details: 1 and 10 micromolar
Method: For agonist determination, cells were incubated with sample to induce response. […] Vehicle concentration was 1%.
Vehicle concentration was 1%.

`CNC(C)C(=O)c1ccc2c(c1)OCO2` (stereo not drawn) [methylone, 3,4-methylenedioxy-N-methylcathinone] was tested, and the “Number of cases (N = 28), Magnitude of Improvement” value (“Number of cases” below) [1] was 0, the “adverse effects or after-effects” value ([1]; Cohort 1, 4 healthy subjects, single session, total dose 790 or 870 mg oral) was “no adverse effects or after-effects were observed or reported” and the “cases in which methylone dosing was well tolerated and no safety events were reported” value ([1]; Cohort 2, 25 of 28 cases) was 89.3%. The “patients with initial improvement with the first methylone session” value ([1]; Cohort 2, 25 of 28 patients) was roughly 90%, the “patients achieving CGI-I 1 or 2” value ([1]; Cohort 2 MDD subset, 8/8 patients) was 100% and the “patients achieving CGI-I 1 or 2” value ([1]; Cohort 2 PTSD subset, 16/20 patients) was 80%. The “patients achieving CGI-I 1 or 2 (much improved or very much improved)” value ([1]; Cohort 2 overall, N=28, oral methylone, single or multiple sessions, compared to baseline CGI-S) was 86%, the “cases reporting a durable effect” value ([1]; MDD subset of Cohort 2, 6 narratives with durability information) was 5 and the “cases with durable effect of 6 months or greater” value ([1]; PTSD subset of Cohort 2) was 12. The “case narratives reporting a durable effect” value ([1]; PTSD subset of Cohort 2, 16 narratives with durability information) was 15, the “patients with magnitude of improvement CGI 1 or 2” value ([1]; PTSD subset, of 5 patients with concomitant SSRIs or other antidepressant classes) was 4 and the “Number of cases” value ([1]; highest observed CGI-I = 1 (very much improved), Cohort 2) was 11*. For the same compound, the “Number of cases” value ([1]; highest observed CGI-I = 2 (much improved), Cohort 2) was 13, the “Number of cases” value ([1]; highest observed CGI-I = 3 (minimally improved), Cohort 2) was 4 and the “Number of cases” value ([1]; highest observed CGI-I = 4 (no change), Cohort 2) was 0. The “Number of cases” value ([1]; highest observed CGI-I = 5 (minimally worse), Cohort 2) was 0, the “Number of cases” value ([1]; highest observed CGI-I = 6 (much worse), Cohort 2) was 0 and the “enhancement of fear extinction recall compared to saline controls (reduced freezing on day 3)” value ([2]; methylone 30 mg/kg IP 30 min prior to extinction training) was roughly 60%. The “locomotion during the testing session” value ([2]; methylone 30 mg/kg IP, day 3) was “no differences between groups”, the “time spent in the center of the open field compared to vehicle” value [3] was “significantly increases” and the “agonist or antagonist activity (criteria: >30% activity, >50% inhibition)” value [4] was “did not meet criteria for agonist or antagonist activity”.
